PubChem BioAssay AID1919014 (Molecular Pharmacology Branch, DTP, NCI, 2023)
“And” between values parts separate entries of the source, which are not always exact repeats. Equal values may be shown once. Each block holds one compound with its values, some of them ahead of it.

System: NCI-H1341 complex spheroids, percent test/control
Test: Anticancer human tumor NCI-H1341 cell line growth inhibition [AhR];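 also: spheroids exposed to agents for seven days before readout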
Conditions: for viability, T/C: stronger effect = lower value
Procedure, shortened: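 Agents were dosed in half-log steps down from roughly clinical Cmax, or from 10 microM where Cmax was unknown, alone and with AhR antagonists. Read-out: percent test/control growth of tumor spheroids containing HUVEC and MSC stromal cells.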

[1] = curve of first compound, second compound 0.1 µM
[2] = curve of first compound, second compound 0.316 µM
[3] = curve of first compound, second compound 1 µM
[4] = curve of first compound, second compound 3.16 µM
[5] = curve of first compound, second compound 10 µM
[6] = second compound 0.1 µM, first compound 0.000316 µM
[7] = second compound 0.1 µM, first compound 0.001 µM
[8] = second compound 0.1 µM, first compound 0.00316 µM
[9] = second compound 0.1 µM, first compound 0.01 µM
[10] = second compound 0.1 µM, first compound 0.0316 µM
[11] = second compound 0.1 µM, first compound 0.1 µM
[12] = second compound 0.316 µM, first compound 0.000316 µM
[13] = second compound 0.316 µM, first compound 0.001 µM
[14] = second compound 0.316 µM, first compound 0.00316 µM
[15] = second compound 0.316 µM, first compound 0.01 µM
[16] = second compound 0.316 µM, first compound 0.0316 µM
[17] = second compound 0.316 µM, first compound 0.1 µM
[18] = second compound 1 µM, first compound 0.000316 µM
[19] = second compound 1 µM, first compound 0.001 µM
[20] = second compound 1 µM, first compound 0.00316 µM
[21] = second compound 1 µM, first compound 0.01 µM
[22] = second compound 1 µM, first compound 0.0316 µM
[23] = second compound 1 µM, first compound 0.1 µM
[24] = second compound 3.16 µM, first compound 0.000316 µM
[25] = second compound 3.16 µM, first compound 0.001 µM
[26] = second compound 3.16 µM, first compound 0.00316 µM
[27] = second compound 3.16 µM, first compound 0.01 µM
[28] = second compound 3.16 µM, first compound 0.0316 µM
[29] = second compound 3.16 µM, first compound 0.1 µM
[30] = second compound 10 µM, first compound 0.000316 µM
[31] = second compound 10 µM, first compound 0.001 µM
[32] = second compound 10 µM, first compound 0.00316 µM
[33] = second compound 10 µM, first compound 0.01 µM
[34] = second compound 10 µM, first compound 0.0316 µM
[35] = second compound 10 µM, first compound 0.1 µM
[36] = second compound 0.1 µM, first compound 0.316 µM
[37] = second compound 0.1 µM, first compound 1 µM
[38] = second compound 0.1 µM, first compound 3.16 µM
[39] = second compound 0.1 µM, first compound 10 µM
[40] = second compound 0.316 µM, first compound 0.316 µM
[41] = second compound 0.316 µM, first compound 1 µM
[42] = second compound 0.316 µM, first compound 3.16 µM
[43] = second compound 0.316 µM, first compound 10 µM
[44] = second compound 1 µM, first compound 0.316 µM
[45] = second compound 1 µM, first compound 1 µM
[46] = second compound 1 µM, first compound 3.16 µM
[47] = second compound 1 µM, first compound 10 µM
[48] = second compound 3.16 µM, first compound 0.316 µM
[49] = second compound 3.16 µM, first compound 1 µM
[50] = second compound 3.16 µM, first compound 3.16 µM
[51] = second compound 3.16 µM, first compound 10 µM
[52] = second compound 10 µM, first compound 0.316 µM
[53] = second compound 10 µM, first compound 1 µM
[54] = second compound 10 µM, first compound 3.16 µM
[55] = second compound 10 µM, first compound 10 µM

Compound: CC[C@@]1(O)C(=O)OCc2c1cc1n(c2=O)Cc2cc3c(CN(C)C)c(O)ccc3nc2-1 + CC(CO)NC(=O)c1cc(-c2ccc(Cl)cc2)nn(-c2cnn(C)c2)c1=O
IC50 [1]: 31.3 nM
IC50 [2]: 60.3 nM
IC50 [3]: 48.9 nM
IC50 [4]: 31.4 nM
IC50 [5]: 32.4 nM
viability, T/C [6]: 81.7%
viability, T/C [7]: 85.1%
viability, T/C [8]: 103%
viability, T/C [9]: 81.5%
viability, T/C [10]: 50.3%
viability, T/C [11]: 40.2%
viability, T/C [12]: 84.4%
viability, T/C [13]: 66.2%
viability, T/C [14]: 84.6%
viability, T/C [15]: 75.8%
viability, T/C [16]: 58.3%
viability, T/C [17]: 43.5%
viability, T/C [18]: 90.7%
viability, T/C [19]: 84%
viability, T/C [20]: 65%
viability, T/C [21]: 76.8%
viability, T/C [22]: 58.8%
viability, T/C [23]: 37.2%
viability, T/C [24]: 87.3%
viability, T/C [25]: 74.8%
viability, T/C [26]: 79.2%
viability, T/C [27]: 71.4%
viability, T/C [28]: 49.5%
viability, T/C [29]: 39.1%
viability, T/C [30]: 80.8%
viability, T/C [31]: 77.8%
viability, T/C [32]: 69.2%
viability, T/C [33]: 70.1%
viability, T/C [34]: 48%
viability, T/C [35]: 36.6%

Compound: O=C(C=Cc1cccc(S(=O)(=O)Nc2ccccc2)c1)NO + CC(CO)NC(=O)c1cc(-c2ccc(Cl)cc2)nn(-c2cnn(C)c2)c1=O
IC50 [1]: 230 nM
IC50 [2]: 278 nM
IC50 [3]: 258 nM
IC50 [4]: 262 nM
IC50 [5]: 163 nM
viability, T/C [10]: 73.7%
viability, T/C [11]: 65.4%
viability, T/C [36]: 41.8%
viability, T/C [37]: 27.1%
viability, T/C [38]: 4.5%
viability, T/C [39]: 0.64%
viability, T/C [16]: 81.9%
viability, T/C [17]: 65.6%
viability, T/C [40]: 48.6%
viability, T/C [41]: 27.8%
viability, T/C [42]: 5.91%
viability, T/C [43]: 0.46%
viability, T/C [22]: 84.8%
viability, T/C [23]: 68.1%
viability, T/C [44]: 45.7%
viability, T/C [45]: 25.5%
viability, T/C [46]: 5.09%
viability, T/C [47]: 1.14%
viability, T/C [28]: 78.9%
viability, T/C [29]: 63.3%
viability, T/C [48]: 49.7%
viability, T/C [49]: 21.9%
viability, T/C [50]: 5.78%
viability, T/C [51]: 0.71%
viability, T/C [34]: 70.6%
viability, T/C [35]: 52.7%
viability, T/C [52]: 44.5%
viability, T/C [53]: 20.3%
viability, T/C [54]: 5.56%
viability, T/C [55]: 0.44%

Compound: CC1(C)CCC(CN2CCN(c3ccc(C(=O)NS(=O)(=O)c4ccc(NCC5CCOCC5)c([N+](=O)[O-])c4)c(Oc4cnc5[nH]ccc5c4)c3)CC2)=C(c2ccc(Cl)cc2)C1 + Cc1ccccc1N=Nc1ccc(NC(=O)c2ccnn2C)c(C)c1
IC50 [1]: 1970 nM
IC50 [2]: 2260 nM
IC50 [3]: 1990 nM
IC50 [4]: 539 nM
IC50 [5]: < 31.6 nM
viability, T/C [10]: 96.5%
viability, T/C [11]: 86%
viability, T/C [36]: 96%
viability, T/C [37]: 60.5%
viability, T/C [38]: 41.3%
viability, T/C [39]: 12.6%
viability, T/C [16]: 100%
viability, T/C [17]: 82.3%
viability, T/C [40]: 94.2%
viability, T/C [41]: 78.3%
viability, T/C [42]: 38.1%
viability, T/C [43]: 14.3%
viability, T/C [22]: 80.3%
viability, T/C [23]: 70.2%
viability, T/C [44]: 84.2%
viability, T/C [45]: 72.3%
viability, T/C [46]: 34.6%
viability, T/C [47]: 14.1%
viability, T/C [28]: 80%
viability, T/C [29]: 54.4%
viability, T/C [48]: 61%
viability, T/C [49]: 46.7%
viability, T/C [50]: 30.1%
viability, T/C [51]: 16.5%
viability, T/C [34]: 44.2%
viability, T/C [35]: 39.9%
viability, T/C [52]: 44.5%
viability, T/C [53]: 35.4%
viability, T/C [54]: 22%
viability, T/C [55]: 12.8%

Now from value to compound, other results behind:

IC50 [1]: > 100 nM
IC50 [2]: > 100 nM
IC50 [3]: > 100 nM
IC50 [4]: > 100 nM
IC50 [5]: > 100 nM
Compound: Cn1ncnc1C1c2n[nH]c(=O)c3cc(F)cc(c23)NC1c1ccc(F)cc1 (centres undefined) + CC(CO)NC(=O)c1cc(-c2ccc(Cl)cc2)nn(-c2cnn(C)c2)c1=O
viability, T/C [6]: 79.2%
viability, T/C [7]: 83.4%
viability, T/C [8]: 84%
viability, T/C [9]: 73.5%
viability, T/C [10]: 83.2%
viability, T/C [11]: 77.6%
viability, T/C [12]: 85%
viability, T/C [13]: 95.7%
viability, T/C [14]: 88.8%
viability, T/C [15]: 76.9%
viability, T/C [16]: 91.8%
viability, T/C [17]: 72.3%
viability, T/C [18]: 72.5%
viability, T/C [19]: 95.4%
viability, T/C [20]: 77.5%
viability, T/C [21]: 85.7%
viability, T/C [22]: 80.5%
viability, T/C [23]: 73.9%
viability, T/C [24]: 87.5%
viability, T/C [25]: 93.8%
viability, T/C [26]: 77.1%
viability, T/C [27]: 62.4%
viability, T/C [28]: 76.2%
viability, T/C [29]: 65.9%
viability, T/C [30]: 72.4%
viability, T/C [31]: 84.2%
viability, T/C [32]: 81%
viability, T/C [33]: 65.2%
viability, T/C [34]: 66.1%
viability, T/C [35]: 69.2%

IC50 (curve of compound): 1650 nM and 1260 nM and 1880 nM
Compound: COc1ccc([C@@H](O)c2cc(-c3ncnc4cc(N5CCOCC5)ccc34)c(F)cc2Cl)nn1
viability, T/C (compound 0.0316 µM): 97.1% and 88.2% and 96%
viability, T/C (compound 0.1 µM): 96.2% and 93.7% and 96.8%
viability, T/C (compound 0.316 µM): 91.2% and 79.9% and 87.8%
viability, T/C (compound 1 µM): 63.1% and 57% and 71.2%
viability, T/C (compound 3.16 µM): 31.1% and 22.9% and 32.9%
viability, T/C (compound 10 µM): 4.6% and 6.65% and 8.33%

IC50 (curve of compound): 122 nM and 51.9 nM and 59 nM
Compound: O=C(C=Cn1cnc(-c2cc(C(F)(F)F)cc(C(F)(F)F)c2)n1)NNc1cnccn1
viability, T/C (compound 0.00949 µM): 92.3% and 73.3% and 75.8%
viability, T/C (compound 0.03 µM): 77.8% and 68.4% and 79.9%
viability, T/C (compound 0.0949 µM): 61.5% and 30% and 30.5%
viability, T/C (compound 0.3 µM): 12.5% and 17.1% and 6.76%
viability, T/C (compound 0.949 µM): 8.28% and 8.73% and 4.72%
viability, T/C (compound 3 µM): 6.13% and 7.12% and 2.87%
